What follows are molecules tested against T1, CCR2 (Homo sapiens, UniProt P41597) (assay: CCR2 receptor membrane binding assay ([125I]MCP-1, THP-1 cell membranes, SPA beads)). Settings: THP-1 membranes, [125I]MCP-1, bound radioactivity determined after 8 h; read-out: hKi.
T1 construct: Membranes were prepared from THP-1 cells; endogenous in cells; host or cells: THP-1 (human acute monocytic leukaemia cells), membrane preparation
Experimental: The above exemplary substances have been tested for binding to CCR2 using a binding assay as outlined herein below:
THP-1 cells (human acute monocytic leukaemia cells) were cultured under standardized conditions at 37° C. and 5% CO2 in a humidified incubator. THP-1 cells were cultivated in RPMI 1640 medium (Gibco 21875) containing 1% MEM-NEAA (Gibso 11140) 2 mM L-glutamine, 1.5 g/L sodium bicarbonate, 4.5 g/L glucose, 10 mM HEPES and 1.0 mM sodium pyruvate, 90%; 10% fetal calf serum (FCS Gibco 10500-064).
Membranes were prepared from THP-1 cells. THP-1 cells were centrifuged at 300×g at 4° C. for 10 min. The cell pellet was resuspended in Phosphate Buffer Saline (PBS, including 10 μM Pefabloc and a protease inhibitor mix ‘complete’, Boehringer Mannheim (1 tablet/50 ml)), to a concentration of […]. The membrane preparation was performed by disrupting the cells by nitrogen […] (at 50 bar, for 1 h) in a “Nitrogen Bombe” (Parr Instrument). Cell debris was removed by centrifugation (800×g at 4° C., 1 min). The supernatant was centrifuged at 80000×g, 4° C. for 30 min to sediment the cell membranes. Usually 50 mg of protein (Bradford assay) were yielded from 1×10E9 cells. The membranes were resuspended in 25 mM HEPES, 25 mM MgCl2, 1 mM CaCl2, 10% Glycerine for storage in aliquots at −80° C. in 25 mM HEPES, 25 mM MgCl2, 1 mM CaCl2, 10% Glycerine and stored at −80° C.
Receptor Membrane Binding Assay:
Perkin Elmer NEX 332 Jod 125 MCP-1, Stock: 2200 Ci/mmol solved in […] assay buffer, stored at −20° C. THP-1 membrane were adjusted with 25 mM HEPES, pH 7.2; 5 mM MgCl2; 0.5 mM CaCl2; 0.2% BSA assay buffer to a concentration of 2.5 μg/15 μl. Amersham Biosciences PVT-WGA Beads (RPNQ0001) were adjusted with assay buffer to a concentration of 0.24 mg/30 μl. For preparation of the membrane-bead-suspension membranes and beads were incubated for 30 min at RT under rotation (60 rpm) with a ratio of 1:2. Test compounds dissolved in 100% DMSO to a concentration of 10 mM and are further diluted with 100% DMSO to 1 mM. All additional compound dilutions were obtained with assay buffer, final 1% DMSO. Compounds, membrane-bead-suspension and [^125I]MCP-1 (ca. 25000 cpm/10 μl) were incubated. Bound radioactivity was determined by scintillation counter after 8 h. Determination of affinity of test compounds (dissociation constant hKi) is calculated by iterative fitting of experimental data using the “easy sys” program, which is based on law of mass action (Schittkowski K. (1994), Numerische Mathematik, Vol. 68, 129-142).

T1 sequence (P41597 whole entry): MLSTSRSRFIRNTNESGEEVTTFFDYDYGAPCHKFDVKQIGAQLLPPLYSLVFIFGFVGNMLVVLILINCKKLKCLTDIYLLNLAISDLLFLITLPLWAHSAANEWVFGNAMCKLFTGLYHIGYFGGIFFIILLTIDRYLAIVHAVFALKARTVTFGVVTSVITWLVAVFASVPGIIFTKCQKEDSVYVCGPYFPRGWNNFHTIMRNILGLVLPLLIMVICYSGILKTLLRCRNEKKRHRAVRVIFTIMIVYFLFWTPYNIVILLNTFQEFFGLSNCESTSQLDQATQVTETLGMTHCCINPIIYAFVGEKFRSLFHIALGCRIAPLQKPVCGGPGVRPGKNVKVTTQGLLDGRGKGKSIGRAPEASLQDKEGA

Structure (SMILES)	Ki [nM]
CO[C@@H]1COCC[C@@H]1NC1CCN(C(=O)c2cc(N3CCc4ccc(C(F)(F)F)cc4C3)ncn2)CC1 [Example 62a]	566
Cc1c(C(=O)N2CCC(N3CCC(N(C)S(C)(=O)=O)CC3)CC2)ncnc1N1CCOC(c2ccc(Cl)cc2)C1 (stereo not drawn) [Example 3]	3690
COC1COCCC1NC1CCN(C(=O)c2ncnc(N3CC4CC4(c4cc(C(F)(F)F)cc(C(F)(F)F)c4)C3)c2C)CC1 (stereo not drawn) [Example 62c]	351
COC1COCCC1NC1CCN(C(=O)c2ncnc(N3CCCc4ccccc4C3)c2C)CC1 (stereo not drawn) [Example 58]	4240
Cc1c(C(=O)N2CCC(N3CCC(N(C)S(C)(=O)=O)CC3)CC2)ncnc1N1CCC(c2ccc(Cl)cc2)CC1 [Example 26]	1970
Cc1c(C(=O)N2CCC(N3CCC(N(C)S(C)(=O)=O)CC3)CC2)ncnc1N1CCC(c2ccccc2C(F)(F)F)CC1 [Example 25]	657
COC1COCCC1NC1CCN(C(=O)c2ncnc(N3CCc4ccc(Cl)cc4C3)c2C)CC1 (stereo not drawn) [Example 10]	14
COC1COCCC1NC1CCN(C(=O)c2ncnc(N3Cc4ccc(C(F)(F)F)cc4C3)c2C)CC1 (stereo not drawn) [Example 43]	49
COC1COCCC1NC1CCN(C(=O)c2ncnc(N3CCc4ncc(Br)cc4C3)c2C)CC1 (stereo not drawn) [Example 40]	304
Cc1c(C(=O)N2CCC(N3CCC(N(C)S(C)(=O)=O)CC3)CC2)ncnc1N1CCC(c2cccc(C(F)(F)F)c2)CC1 [Example 20]	480
COC1COCCC1NC1CCN(C(=O)c2ncnc(N3CCCN(c4ccccc4C)CC3)c2C)CC1 (stereo not drawn) [Example 62d]	305
Cc1c(C(=O)N2CCC(N3CCC(N(C)S(C)(=O)=O)CC3)CC2)ncnc1N1CCC(c2cccc(F)c2)CC1 [Example 22]	3790
COC1COCCC1NC1CCN(C(=O)c2ncnc(N3CCc4ccc(F)cc4C3)c2C)CC1 (stereo not drawn) [Example 7]	27
COC1COCCC1NC1CCN(C(=O)c2ncnc(N3CCC(c4ccccc4C(F)(F)F)CC3)c2C)CC1 (stereo not drawn) [Example 29]	241
CO[C@@H]1COCC[C@@H]1NC1CCN(C(=O)c2ncnc(N3CCC4(CCc5cc(Cl)ccc5O4)CC3)c2C)CC1 [Example 62an]	12
Cc1c(C(=O)N2CCC(N3CCC(N(C)S(C)(=O)=O)CC3)CC2)ncnc1N1CCCC(c2ccc(C(F)(F)F)cc2)C1 (stereo not drawn) [Example 34]	4250

Structure (SMILES)	Ki [nM]
Cc1c(C(=O)N2CCC(N3CCC(N(C)S(C)(=O)=O)CC3)CC2)ncnc1N1CCC(c2ccccc2F)C1 (stereo not drawn) [Example 44]	3920
COC1COCCC1NC1CCN(C(=O)c2ncnc(N3CCN(c4c(C)cccc4C)CC3)c2C)CC1 (stereo not drawn) [Example 62ai]	34
COC1COCCC1NC1CCN(C(=O)c2ncnc(N3CCC4(C=Cc5ccccc54)CC3)c2C)CC1 (stereo not drawn) [Example 23]	455
Cc1c(C(=O)N2CCC(N3CCC(N(C)S(C)(=O)=O)CC3)CC2)ncnc1N1CCC(c2ccc(C(F)(F)F)cc2)CC1 [Example 17]	1050
COC1COCCC1NC1CCN(C(=O)c2ncnc(N3CCN(c4ccccc4Cl)CC3)c2C)CC1 (stereo not drawn) [Example 62aa]	89
Cc1c(C(=O)N2CCC(N3CCC(N(C)S(C)(=O)=O)CC3)CC2)ncnc1N1CCC2(C=Cc3ccccc32)CC1 [Example 11]	2160
COC1COCCC1NC1CCN(C(=O)c2ncnc(N3CCN(c4cccc(C)c4)CC3)c2C)CC1 (stereo not drawn) [Example 62af]	257
Cc1c(C(=O)N2CCC(N3CCC(N(C)S(C)(=O)=O)CC3)CC2)ncnc1N1CCC(c2ccccc2)CC1 [Example 28]	3680
COc1ccc(C2CCN(c3ncnc(C(=O)N4CCC(NC5CCOCC5OC)CC4)c3C)CC2)cc1 (stereo not drawn) [Example 14]	1610
COC1COCCC1NC1CCN(C(=O)c2ncnc(N3CCC4(CCc5cc(Br)ccc5O4)CC3)c2C)CC1 (stereo not drawn) [Example 62ab]	16
COC1COCCC1NC1CCN(C(=O)c2ncnc(N3CCc4c(Cl)cc(Cl)cc4C3)c2C)CC1 (stereo not drawn) [Example 39]	49
Cc1c(C(=O)N2CCC(N3CCC(N(C)S(C)(=O)=O)CC3)CC2)ncnc1N1CCc2ccc(C(F)(F)F)cc2C1 [Example 1]	15
Cc1cccc(C2CCN(c3ncnc(C(=O)N4CCC(N5CCC(N(C)S(C)(=O)=O)CC5)CC4)c3C)CC2)c1 [Example 30]	1360
COC1COCCC1NC1CCN(C(=O)c2ncnc(N3CCC(c4ccccc4C(F)(F)F)C3)c2C)CC1 (stereo not drawn) [Example 49]	161
COC1COCCC1NC1CCN(C(=O)c2ncnc(N3CCOC(c4ccccc4)C3)c2C)CC1 (stereo not drawn) [Example 5]	4170

Next, values leading:

Ki [nM]	Structure (SMILES)
29	Cc1c(C(=O)N2CCC(NC3CCOCC3F)CC2)ncnc1N1CCc2ccc(C(F)(F)F)cc2C1 (stereo not drawn) [Example 69k]
1380	COC1COCCC1NC1CCN(C(=O)c2ncnc(N3Cc4ccccc4C4(CC4)C3)c2C)CC1 (stereo not drawn) [Example 62l]
184	COC1COCCC1NC1CCN(C(=O)c2ncnc(N3CCC4(CC3)CC(=O)c3cc(Br)ccc3O4)c2C)CC1 (stereo not drawn) [Example 62i]
24	Cc1c(C(=O)N2CCC(N[C@H]3CCOC[C@H]3F)CC2)ncnc1N1CCc2ccc(C(F)(F)F)cc2C1 [Example 69n]
7	CO[C@@H]1COCC[C@@H]1NC1CCN(C(=O)c2ncnc(N3CCc4ccc(Br)cc4C3)c2C)CC1 [Example 69y]
0.7	CO[C@@H]1COCC[C@@H]1NC1CCN(C(=O)c2nc(C3CC3)nc(N3CCc4ccc(C(F)(F)F)cc4C3)c2C)CC1 [Example 69x]
6	CO[C@@H]1COCC[C@@H]1NC1CCN(C(=O)c2ncnc(N3CCc4cc(C(F)(F)F)ccc4C3)c2C)CC1 [Example 69p]
552	CCN(CC)C1CCN(C(=O)c2ncnc(N3CCc4ccc(C(F)(F)F)cc4C3)c2C)CC1 [Example 74]
14	Cc1c(C(=O)N2CCC(N[C@@H]3CCOC[C@@H]3F)CC2)ncnc1N1COc2ccc(C(F)(F)F)cc2C1 [Example 69l]
62	COc1c(C(=O)N2CCC(N3CCC(N(C)S(C)(=O)=O)CC3)CC2)ncnc1N1CCc2ccc(OC(F)(F)F)cc2C1 [Example 69]
8	COc1nc(C(=O)N2CCC(NC3CCOCC3F)CC2)c(C)c(N2CCc3ccc(C(F)(F)F)cc3C2)n1 (stereo not drawn) [Example 69s]
657	CCN(CC)C1CCN(C(=O)c2ncnc(N3CCc4ccc(C(F)(F)F)cc4C3)c2C)C1 (stereo not drawn) [Example 75]
1	COc1nc(C(=O)N2CCC(N[C@H]3CCOC[C@H]3OC)CC2)c(C)c(N2CCc3ccc(C(F)(F)F)cc3C2)n1 [Example 69j]
516	COC1COCCC1NC1CCN(C(=O)c2ncnc(N3CCCN(c4ccc(Cl)cc4)CC3)c2C)CC1 (stereo not drawn) [Example 62j]
300	COC1COCCC1NC1CCN(C(=O)c2ncnc(N3CCN(c4ccccc4C)CC3)c2C)CC1 (stereo not drawn) [Example 62m]
54	COC1COCCC1NC1CCN(C(=O)c2ncnc(N3CCN(c4ccc(Cl)c(C(F)(F)F)c4)CC3)c2C)CC1 (stereo not drawn) [Example 62w]
17	CO[C@@H]1COCC[C@@H]1NC1CCN(C(=O)c2ncnc(N3CCc4ccc(C)cc4C3)c2C)CC1 [Example 69f]
9560	COC1COCCC1NC1CCN(C(=O)c2ncnc(N3CCCC4(CCCCC4)C3)c2C)CC1 (stereo not drawn) [Example 62f]
1	CO[C@@H]1COCC[C@@H]1NC1CCN(C(=O)c2ncnc(N3COc4ccc(C(F)(F)F)cc4C3)c2C)CC1 [Example 69e]
30	COC1COCCC1NC1CCN(C(=O)c2ncnc(N3CCN(c4ccccc4C(F)(F)F)CC3)c2C)CC1 (stereo not drawn) [Example 62z]
18	COC1COCCC1NC1CCN(C(=O)c2ncnc(N3CCN(c4cccc(Cl)c4Cl)CC3)c2C)CC1 (stereo not drawn) [Example 62x]
10	Cc1c(C(=O)N2CCC(N[C@H]3CCOC[C@H]3F)CC2)ncnc1N1COc2ccc(C(F)(F)F)cc2C1 [Example 69o]
13	CO[C@H]1COCC[C@H]1NC1CCN(C(=O)c2ncnc(N3CCc4ccc(C(F)(F)F)cc4C3)c2C)CC1 [Example 64]
96	Cc1c(C(=O)N2CCC(N[C@H]3CCOC[C@H]3F)CC2)ncnc1N1CCc2ccc(Br)cc2C1 [Example 69ac]
13	CO[C@H]1COCC[C@H]1NC1CCN(C(=O)c2ncnc(N3CCc4ccc(Br)cc4C3)c2C)CC1 [Example 69z]
1080	COC1COCCC1NC1CCN(C(=O)c2ncnc(N3CCC4CC4(c4ccc(Br)cc4)C3)c2C)CC1 (stereo not drawn) [Example 62o]
